Holding throughout (format): cell-based, mouse
Assay [1] deals with ADRP. In words: Immunoblot of ADRP expression in 3T3-L1 adipocytes. As to conditions: 1 ug/ml; normalized with actin. How it is done:
(§1) Experimental protocol: Mouse pre-adipocyte 3T3-L1 cells are maintained in Dulbecco's Modified Eagles Medium (DMEM) supplemented with 2 mM glutamine, 4.5 g/L glucose and 10% fetal bovine serum. Equal number of cells was plated in each well of 24-well culture plates. Cells were pre-treated separately with 1 μg/mL 7-hydroxyfrullanolide for 2 h and followed by addition of differentiation medium containing 500 nM insulin, 1.0 μM dexamethasone, and 0.5 mM isobutylmethylxanthine (IBMX) for 48 h. Thereafter, cells were further incubated with post differentiation medium (DMEM containing 100 nM insulin) in presence or absence of 7-HF. […] Protein content was measured in Bradford method by using Coomassie blue dye and cell lysates were stored in aliquots at −80° C. until further use. The modulation of adipocyte differentiation markers such as Peroxisome proliferator-activated receptor gamma (PPARγ), CD36, adipocyte fatty acid binding protein (aP2); and intracellular lipid droplet surface associated protein, perilipin expression were evaluated by immunoblot assay.
(§2) Inhibition of protein expression of biomarker molecules adipocytes in presence or absence of 7-hydroxyfrullanolide (7-HF) was evaluated in immunoblot assay. […] Band intensities were calculated densitometrically and normalized with expression of actin in respective samples.

For assay [2], the system named is 3T3-L1 pre-adipocyte cells. Kind of assay: Inhibition of lipid accumulation in differentiated adipocytes (Oil Red O). Conditions: Homo sapiens, 3T3-L1 adipocytes. How it is done: One hundred thousand 3T3-L1 […] pre-adipocyte cells in Dulbecco's Modified Eagles Medium (DMEM) containing 10% Fetal Bovine Serum (FBS) were taken into each well of a 24-well plate and incubated for 48 h at 37° C. and 5% CO2. The differentiation of pre-adipocyte cells was initiated in a differentiation medium containing 10 μg/ml insulin, 1.0 μM dexamethasone, and 0.5 mM isobutylmethylxanthine (IBMX) for 48 h. After this the medium was replaced by DMEM containing 10 ug/ml insulin and incubated for 3 days. Then the differentiating cells were treated with […] of 7-hydroxyfrullanolide (1) or different natural analogs (structure numbers 3 to 11) or semi-synthetic analogs (structure numbers 12 to 25) of 7-HF. The cells were maintained in the medium for another 3-5 days. The cells incubated with 0.1% DMSO were considered as the vehicle control. After the incubation period, cells were washed with phosphate buffered saline (PBS) and fixed with 10% buffered formalin for 1 h at room temperature. One small aliquot of cell suspension was separated for cell counting in hemocytometer chamber. Fixed cells were stained with Oil Red O solution to measure the cellular neutral lipid accumulation. Briefly, cells were washed with PBS, fixed with 10% buffered formalin and stained with Oil Red O solution (0.5 g in 100 ml isopropanol) for […]. After removing the staining solution, the dye retained in the cells will be eluted into isopropanol and OD measured at 550 nm. The inhibition of fat accumulation in the treated cells was compared with the mock treated differentiated adipocytes. The treated and control cells were also analyzed and compared for inhibition of lipid accumulation visually under microscope and recorded digitally in suitable image capture system. The anti-adipogenic activity by 7-HF is depicted in Figure I and the percentage inhibition of lipid accumulation shown by 7-HF and its natural and semi-synthetic analogs is summarized in Table-1.

Assay [3] concerns aP2. In words: Immunoblot of aP2 expression in 3T3-L1 adipocytes. As to conditions: 1 ug/ml; normalized with actin. How it is done:
as §1, §2
On the technique in general: Immunoblotting shows a protein as a band on a membrane.

The test system of assay [4] is adiponectin. Kind of assay: Western immunoblot of adiponectin in 3T3-L1 adipocytes. Conditions: 1 μg/ml; 3T3-L1 mature adipocytes. How it is done:
as §1
Inhibition of protein expression of biomarker molecules adipocytes in presence or absence of 7-hydroxyfrullanolide (7-HF) was evaluated in immunoblot assay. […] Band intensities were calculated densitometrically and normalized with expression of actin in respective samples. […]

Assay [5] has as its system PTP-1B. Kind of assay: PTP-1B activity in 3T3-L1 cell lysates (pNPP hydrolysis). Conditions: 1.0 or 2.5 μg/ml; 48 h. How it is done: Equal number of 3T3-L1 mouse preadipocytes was seeded into cell culture dishes. After 24 h, the cells were treated either with different concentrations of 7-HF or […] Sodium vanadate ([…]) for further 48 h. Thereafter, the washed cells were lysed with cell lysis buffer and the clarified at 14,000 g for 10 min at 4° C. The protein concentrations were calculated by Bradford method and the cell lysates were reacted with equal volume of substrate reagent containing 10 mM p-nitrophenyl phosphate (pNPP). After 1 h incubation at 37° C., the reaction was stopped with 1N NaOH and the developed color was read at 405 nm. The specific enzyme activity was calculated by using an extinction coefficient of 1.78×10^4 M^−1cm^−1 for pNPP at A405. The inhibition shown by 7-HF is depicted in Figure VII.

Assay [6] has as its system CD36. In words: Immunoblot of CD36 expression in high glucose induced J774 macrophage cells. Conditions: 1 μg/ml; 600 mg/dL glucose, 5 days. How it is done: Experimental protocol: This was evaluated in glucose induced J774, mouse macrophage cells. Briefly, the cells were cultured in DMEM with 2 mM Glutamine, 100 U/mL penicillin, […] streptomycin and 10% fetal bovine serum (Hyclone, Logan, Utah). Equal number of cells was seeded into 35 mm petri dishes (Corning, USA) one day before the experiment. The culture media was replaced with fresh, glucose free DMEM supplemented with 10% fetal bovine serum. 7-HF was diluted at […] and all cultures were pre-incubated for 2 hours at 5% CO2 at 37° C., and then incubated with 600 mg/dL of glucose for 5 days. Representative photomicrographs showing inhibition of lipid accumulation by 7-HF in high glucose induced macrophage cells of an in vitro model of atherosclerosis are shown in Figure IV. The control culture was supplemented with 100 mg/dL glucose. […] Protein concentration was measured by Bradford method.
Inhibition of CD36 protein expression in high glucose induced J774 macrophage cells in presence or absence of 7-HF was evaluated in immunoblot assay. […] Finally, the specific immuno-reactive bands were developed with West-pico chemiluminescent substrate (Pierce Biotechnology, IL, USA), and the immunoblot images were recorded in a Kodak Image Station (Kodak, USA). Band intensities were calculated densitometrically and normalized with expression of actin in respective samples.

By inhibition is commonly meant the relative decrease from the control value, in per cent. For the compound `C=C1C(=O)O[C@H]2C3=C(C)CCC[C@]3(C)CC[C@@]12O` [7-HF (1), 7-hydroxyfrullanolide], in assay [1], the ADRP protein expression entry is recorded as “down-regulation”. The inhibition at 1 µg/mL in assay [2] (1.0 μg/mL) stood at 52.5%. Further, testing at 2.5 µg/mL in assay [2] (2.5 μg/mL) gave an inhibition of 63.5%. Further, the aP2 protein expression result in assay [3] is “down-regulation”. Besides, the adiponectin protein expression result in assay [4] is recorded as “potent upregulation”. For the same compound, the PTP-1B activity entry in assay [5] is given as “significant inhibition”. In addition, the “CD36 levels in high glucose induced macrophage cells” value in assay [6] is listed as “reduced back towards their base values”.

The values above are taken from US20130136809A1, “7-HYRDROXYFRULLANOLIDE ITS ANALOGS FOR PREVENTION CONTROL AND TREATMENT OF METABOLIC DISORDERS” (LAILA NUTRACEUTICALS, priority 2009, published 2013).
